Results as given in patent US20250129080A1, “COMPOSITIONS AND METHODS OF USING THE SAME FOR TREATMENT OF NEURODEGENERATIVE AND MITOCHONDRIAL DISEASE” (Mitokinin, Inc., priority 2021, published 2025).
pEC50: −log10 of the molar value.

How the values were obtained:
SKOV3 cells = assay: In vitro mitosafety (glucose/galactose) assay; assay type: cell-based; conditions: highest mito-safe dose (gal/glc >0.80, IC20, SKOV3 cells, 20 hours) divided by mt-Keima EC50
Procedure: Briefly, SKOV3 cells (ATCC HTB-77) were plated in DMEM (Corning 10-013-CV) medium containing 25 mM glucose or DMEM with no glucose (Gibco 11966-025) supplemented with 10 mMV galactose at 9,000 cells/well in 96 well plates (Corning costar 3610). 24 hrs later, compounds, in DMSO, were added at various concentrations to a final 0.1% DMSO for all wells. […] After a 15 minute incubation cellular ATP levels were read out using a Promega GloMax® DiscoverMicroplate Reader.
The ratio of relative CellTiter-Glo values from cells grown in galactose to cells grown in glucose was determined (gal/glc ratio). The gal/glc ratio vs concentration is then graphed, and non-linear regression is used to find the highest concentration of MTK compound at which gal/glc >0.80 (the “highest mito-safe dose”, or IC20).

[1] = test system: HeLa cells expressing mt-Keima and YFP-Parkin (HeLa MKYP); assay: Human mt-Keima mitophagy assay; assay type: cell-based; conditions: 16 hrs with compound, then FCCP/oligomycin for 6 hours, FACS
Procedure: Briefly, HeLa cells expressing mt-Keima and YFP-Parkin (HeLa MKYP) were plated at 10,000 cells/well in 96 well plates along with compounds at various concentrations. Following 16 hrs of incubation, cells were treated with […] FCCP/oligomycin for 6 hours, then analyzed via FACS for the presence of mitochondria in lysosomes (as determined by an emissions spectrum shift from the pH-sensitive mt-Keima tag).

| SMILES | pEC50 ([1]; Homo sapiens, HeLa) | pEC50 [1] | Mito-Safety Index (highest safe dose/EC50) (SKOV3 cells) |
| --- | --- | --- | --- |
| c1ccc2c(c1)OC[C@H](N1CCC3(CCCO3)C1)[C@H]2Nc1ncnc2[nH]c(C3CC3)cc12 (single isomer, unassigned) [EP-0042935] |  |  | 211.76 |
| CO[C@@H]1CCN([C@H]2COc3cc(F)ccc3[C@@H]2Nc2ncnc3[nH]c(C(F)(F)F)cc23)C1 [EP-0043690, N-((3R,4S)-7-fluoro-3-((R)-3-methoxypyrrolidin-1-yl)chroman-4-yl)-6-(trifluoromethyl)-7H-pyrrolo[2,3-d]pyrimidin-4-amine] | 6.85 |  | 68.6 |
| FC(F)(F)c1cc2c(N[C@H]3c4ccccc4OC[C@@H]3N3CCOC4(CC4)C3)ncnc2[nH]1 [EP-0042970, N-((3R,4S)-3-(4-Oxa-7-Azaspiro[2.5]Octan-7-Yl)Chroman-4-Yl)-6-(Trifluoromethyl)-7H-Pyrrolo[2,3-D]Pyrimidin-4-Amine] | 6.39 |  | 61.94 |
| N#C[C@H]1CCN([C@H]2COc3ccccc3[C@@H]2Nc2ncnc3[nH]c(C4CC4)cc23)C1 [EP-0042930] | 7.42 |  | 105.8 |
| c1ccc2c(c1)OC[C@H](N1CCCC1)[C@H]2Nc1ncnc2[nH]c(C3CC3)cc12 [EP-0042659, 6-Cyclopropyl-N-((3R,4S)-3-(Pyrrolidin-1-Yl)Chroman-4-Yl)-7H-Pyrrolo[2,3-D]Pyrimidin-4-Amine] | 6.60 |  | 54.54 |
| N#C[C@H]1CCN([C@H]2COc3ccccc3[C@@H]2Nc2ncnc3[nH]c(C4CC4)cc23)C1 [EP-0043271, (S)-1-((3R,4S)-4-((6-Cyclopropyl-7H-Pyrrolo[2,3-D]Pyrimidin-4-Yl)Amino)Chroman-3-Yl)Pyrrolidine-3-Carbonitrile] |  | 7.19 | 74.90 |
| FC(F)(F)c1cc2c(N[C@H]3c4ccccc4OC[C@@H]3N3CCOC4(CC4)C3)nccc2[nH]1 [EP-0043895, N-((3R,4S)-3-(4-oxa-7-azaspiro[2.5]octan-7-yl)chroman-4-yl)-2-(trifluoromethyl)-1H-pyrrolo[3,2-c]pyridin-4-amine] | 6.77 |  | 94.7 |
| CO[C@H]1CCCN([C@H]2COc3ccccc3[C@@H]2Nc2ncnc3[nH]c(C4CC4)cc23)C1 [EP-0042537, 6-Cyclopropyl-N-((3R,4S)-3-((S)-3-Methoxypiperidin-1-Yl)Chroman-4-Yl)-7H-Pyrrolo[2,3-D]Pyrimidin-4-Amine] | 6.57 |  | 37.03 |
| F[C@H]1CCN([C@H]2COc3ccccc3[C@@H]2Nc2ncnc3[nH]c(C4CC4)cc23)C1 [EP-0042536, 6-Cyclopropyl-N-((3R,4S)-3-((S)-3-Fluoropyrrolidin-1-Yl)Chroman-4-Yl)-7H-Pyrrolo[2,3-D]Pyrimidin-4-Amine] | 6.81 |  | 89.78 |
| OC1([C@H]2COc3ccccc3[C@@H]2Nc2ncnc3[nH]c(C4CC4)cc23)CCOCC1 [EP-0042202, 4-[(3R,4R)-4-[(6-Cyclopropyl-7H-Pyrrolo[2,3-D]Pyrimidin-4-Yl)Amino]Chroman-3-Yl]Tetrahydropyran-4-Ol] | 6.67 |  | 116.5 |
| Fc1ccc2c(c1)OC[C@H](N1CCC3(CC3)C1)[C@H]2Nc1ncnc2[nH]c(C(F)(F)F)cc12 [EP-0043913, N-((3R,4S)-7-fluoro-3-(5-azaspiro[2.4]heptan-5-yl)chroman-4-yl)-6-(trifluoromethyl)-7H-pyrrolo[2,3-d]pyrimidin-4-amine] | 6.43 |  | 67.6 |
| Fc1ccc2c(c1)OC[C@H](N1CCOC3(CC3)C1)[C@H]2Nc1ncnc2[nH]c(C(F)(F)F)cc12 [EP-0043834, N-((3R,4S)-7-fluoro-3-(4-oxa-7-azaspiro[2.5]octan-7-yl)chroman-4-yl)-6-(trifluoromethyl)-7H-pyrrolo[2,3-d]pyrimidin-4-amine] | 6.25 |  | 40.9 |
| FC(F)(F)c1cc2c(N[C@H]3c4ccccc4OC[C@@H]3C3(F)CCOCC3)ncnc2[nH]1 [EP-0043236, N-[(3R,4R)-3-(4-Fluorotetrahydropyran-4-Yl)Chroman-4-Yl]-6-(Trifluoromethyl)-7H-Pyrrolo[2,3-D]Pyrimidin-4-Amine] | 6.38 |  | 59.18 |
| F[C@@H]1CCN([C@H]2COc3ccccc3[C@@H]2Nc2ncnc3[nH]c(C4CC4)cc23)C1 [EP-0042534, 6-Cyclopropyl-N-((3R,4S)-3-((R)-3-Fluoropyrrolidin-1-Yl)Chroman-4-Yl)-7H-Pyrrolo[2,3-D]Pyrimidin-4-Amine] | 6.46 |  | 71.21 |
| OC1([C@H]2COc3ccccc3[C@@H]2Nc2ncnc3[nH]c(C(F)(F)F)cc23)CCOCC1 [EP-0042356, 4-[(3R,4R)-4-[[6-(Trifluoromethyl)-7H-Pyrrolo[2,3-D]Pyrimidin-4-Yl]Amino]Chroman-3-Yl]Tetrahydropyran-4-Ol] | 6.66 |  | 114.63 |
| FC(F)OC1CN([C@H]2COc3ccccc3[C@@H]2Nc2ncnc3[nH]c(C4CC4)cc23)C1 (relative stereo) [EP-0041832, 6-Cyclopropyl-N-[Trans-3-[3-(Difluoromethoxy)Azetidin-1-Yl]Chroman-4-Yl]-7H-Pyrrolo[2,3-D]Pyrimidin-4-Amine] | 6.46 |  | 72.23 |
| CO[C@H]1CCCN([C@H]2COc3ccccc3[C@@H]2Nc2ncnc3[nH]c(C(F)(F)F)cc23)C1 [EP-0043439, N-((3R,4S)-3-((S)-3-Methoxypiperidin-1-Yl)Chroman-4-Yl)-6-(Trifluoromethyl)-7H-Pyrrolo[2,3-D]Pyrimidin-4-Amine] | 6.35 |  | 48.93 |
| N#C[C@@H]1CCN([C@H]2COc3ccccc3[C@@H]2Nc2ncnc3[nH]c(C(F)(F)F)cc23)C1 [EP-0043264, (R)-1-((3R,4S)-4-((6-(Trifluoromethyl)-7H-Pyrrolo[2,3-D]Pyrimidin-4-Yl)Amino)Chroman-3-Yl)Pyrrolidine-3-Carbonitrile] | 6.89 |  | 91.68 |

The next lines start with results.

| pEC50 ([1]; Homo sapiens, HeLa) | pEC50 [1] | SMILES | Mito-Safety Index (highest safe dose/EC50) (SKOV3 cells) |
| --- | --- | --- | --- |
| 6.22 |  | FC(F)C1CN([C@H]2COc3ccccc3[C@@H]2Nc2ncnc3[nH]c(C(F)(F)F)cc23)C1 [EP-0043831, N-((3R,4S)-3-(3-(difluoromethyl)azetidin-1-yl)chroman-4-yl)-6-(trifluoromethyl)-7H-pyrrolo[2,3-d]pyrimidin-4-amine] | 41.7 |
| 7.40 |  | FC(F)C1CCN([C@H]2COc3ccccc3[C@@H]2Nc2ncnc3[nH]c(C(F)(F)F)cc23)C1 (stereo partly drawn) [EP-0043845, N-((3R,4S)-3-(3-(Difluoromethyl)Pyrrolidin-1-Yl)Chroman-4-Yl)-6-(Trifluoromethyl)-7H-Pyrrolo[2,3-D]Pyrimidin-4-Amine] | 95.0 |
| 7.05 |  | FC(F)(F)O[C@H]1CCN([C@H]2COc3ccccc3[C@@H]2Nc2ncnc3[nH]c(C(F)(F)F)cc23)C1 [EP-0043865, N-((3R,4S)-3-((S)-3-(trifluoromethoxy)pyrrolidin-1-yl)chroman-4-yl)-6-(trifluoromethyl)-7H-pyrrolo[2,3-d]pyrimidin-4-amine] | 44.4 |
| 6.89 |  | FC(F)(F)c1cc2c(N[C@H]3c4ccccc4OC[C@@H]3N3CCCC3)nccc2[nH]1 [EP-0043873, N-((3R,4S)-3-(pyrrolidin-1-yl)chroman-4-yl)-2-(trifluoromethyl)-1H-pyrrolo[3,2-c]pyridin-4-amine] | 71.5 |
| 6.60 |  | C[C@@H]1CN([C@H]2COc3cc(F)ccc3[C@@H]2Nc2ncnc3c2cc(C(F)(F)F)n3C)CCO1 [EP-0043854, N-((3R,4S)-7-fluoro-3-((R)-2-methylmorpholino)chroman-4-yl)-7-methyl-6-(trifluoromethyl)-7H-pyrrolo[2,3-d]pyrimidin-4-amine] | 99.6 |
| 7.30 |  | C[C@@H]1CN([C@H]2COc3cc(F)ccc3[C@@H]2Nc2nccc3[nH]c(C(F)(F)F)cc23)CCO1 [EP-0043830, N-((3R,4S)-7-fluoro-3-((R)-2-methylmorpholino)chroman-4-yl)-2-(trifluoromethyl)-1H-pyrrolo[3,2-c]pyridin-4-amine] | 118.0 |
| 6.77 |  | C[C@@H]1CN([C@H]2COc3ccc(F)cc3[C@@H]2Nc2ncnc3[nH]c(C(F)(F)F)cc23)CCO1 [EP-0043863, N-((3R,4S)-6-fluoro-3-((R)-2-methylmorpholino)chroman-4-yl)-6-(trifluoromethyl)-7H-pyrrolo[2,3-d]pyrimidin-4-amine] | 40.0 |
| 7.15 |  | C[C@@H]1CN([C@H]2COc3cccc(F)c3[C@@H]2Nc2ncnc3[nH]c(C(F)(F)F)cc23)CCO1 [EP-0043859, N-((3R,4S)-5-fluoro-3-((R)-2-methylmorpholino)chroman-4-yl)-6-(trifluoromethyl)-7H-pyrrolo[2,3-d]pyrimidin-4-amine] | 31.4 |
| 6.82 |  | COC1CN([C@H]2COc3ccccc3[C@@H]2Nc2nccc3[nH]c(C(F)(F)F)cc23)C1 [EP-0043896, N-((3R,4S)-3-(3-methoxyazetidin-1-yl)chroman-4-yl)-2-(trifluoromethyl)-1H-pyrrolo[3,2-c]pyridin-4-amine] | 126.7 |
| 8.00 |  | C[C@@H]1CN([C@H]2COc3cc(F)ccc3[C@@H]2Nc2ncnc3[nH]c(C4CCC4)cc23)CCO1 [EP-0044008, 6-cyclobutyl-N-((3R,4S)-7-fluoro-3-((R)-2-methylmorpholino)chroman-4-yl)-7H-pyrrolo[2,3-d]pyrimidin-4-amine] | 2500.0 |
